The values that follow are results of earlier work, collected in patent US9695323B2, “UV curable solventless antimicrobial compositions” (Becton, Dickinson and Company, priority 2013, dated 2017).

For the series, the system named is Staphylococcus epidermidis.

The structures appear in SMILES notation.

As for `CC(=O)O.CC(=O)O.NC(=N\CCCCCC/N=C(N)/N=C(\N)Nc1ccc(Cl)cc1)/N=C(\N)Nc1ccc(Cl)cc1` [chlorhexidine diacetate], the minimum inhibitory concentration was 2 µg/mL.
